Reference: patent US10568868B2, “Methods and compositions for treating metabolic reprogramming disorders” (THE JOHNS HOPKINS UNIVERSITY, priority 2015, dated 2020)

Tests used:
[1] = In vitro plasma stability, pig plasma; format: in vitro ADME
[2] = In vitro plasma stability, dog plasma; format: in vitro ADME
[3] = In vitro plasma stability, human plasma; format: in vitro ADME
[4] = Pharmacokinetics of DON in swine plasma and CSF after i.v. infusion of DON, compound 14b or compound 47; format: in vivo; conditions: for CSF-to-plasma ratio of DON: 60 min post-administration; for amount of DON delivered to the CSF relative to DON: CSF at 60 min post-dose
Protocol: Compound: Compound 47 was dissolved in a sterile saline containing 5% ethanol and 5% Tween 80 on the date of administration.
Swine: Swine studies were conducted under a protocol approved by the Johns Hopkins Animal Care and Use Committee. Adult, female Gottingen×Yucutan miniature swine (Massachusetts General Hospital, MA) were housed in Johns Hopkins University facilities accredited by the Association for Assessment and Accreditation of Laboratory Animal Care International in compliance with the Animal Welfare Act, Animal Welfare Regulations, and the Public Health Service Policy on the Humane Care and Use of Laboratory Animals. Animals were maintained on a 14-h light and 10-h dark schedule, provided ad libitum water and a commercial miniswine diet (Teklad, Madison, Wis.) with environmental enrichment (fruit/vegetables) twice daily.

[5] = In vitro plasma stability, mouse plasma; format: in vitro ADME, mice
[6] = In vitro plasma stability, monkey plasma; format: in vitro ADME, monkeys
CD4+ and CD8+ T cells [7] = experiment: T cell proliferation (eFluor 670 dilution) of splenocytes stimulated with anti-CD3; format: cell-based, C57BL/6 mice; conditions: anti-CD3, 72 h; DON 5 μM; 2-DG 0.6 mM; Metformin 1 mM
CD4+ and CD8+ T cells [8] = experiment: IFN-γ secretion of anti-CD3 stimulated splenocytes (ELISA); format: cell-based, C57BL/6 mice; conditions: anti-CD3, 24 h; DON 5 μM; 2-DG 0.6 mM; Metformin 1 mM
CD4+ T cells = experiment: Extracellular flux analysis (ECAR, OCR) of CD4+ T cells stimulated with anti-CD3/CD28; format: cell-based, 5C.C7 mice; conditions: 2-DG 10 mM; Metformin 50 mM; DON 30 μM; after anti-CD3/CD28
Protocol: Extracellular flux analysis: Cells were initially plated to XF assay medium, modified DMEM (Seahorse Bioscience) containing 25 mM glucose, 2 mM L-glutamine, and 1 mM sodium pyruvate, and incubated in a non-CO2 incubator at 37° C. for 30 minutes. OCR and ECAR were measured at 37° C. in a XF96 Extracellular Flux Analyzer (Seahorse Bioscience) using manufacturer recommended protocols. After baseline measurements, OCR and ECAR were measured after sequentially adding anti-CD3/CD28 and metabolic reprogramming agents into each well to the indicated final concentrations using the included ports on the XF96 cartridges. All data were collected using the XF Reader software from Seahorse Bioscience.
OCR is an indicator of mitochondrial OXPHOS, and ECAR is predominantly a measure of lactic acid formed during glycolytic energy metabolism, and thus reflects overall glycolytic flux. Primary, naïve 5C.C7 CD4^+ T cells were incubated with pigeon cytochrome c (PCC) peptide for 48 hrs and then expanded and rested in IL-2 for an additional 5 days to generate previously activated CD4^+ cells. After measuring the baseline bioenergetics of these resting CD4^+ cells, cells were re-stimulated with anti-CD3/CD28 (FIG. 9A and FIG. 9B). […] Upon reaching the peak of glycolytic flux, metabolic reprogramming agents were administered to the cells. 2-DG is a glucose analog that inhibits hexokinase, the first enzyme in the glycolytic pathway (Rowe et al. (2013) Nature Medicine 19(4):488-493). […] Metformin is a commonly used oral hypoglycemic that activates AMPK, inhibits mitochondrial respiratory complex I and promotes fatty acid oxidation (Buzzai et al. (2007) Cancer Research 67(14):6745-6752; El-Mir et al. (2000) The Journal of Biological Chemistry 275(1):223-228).

[9] = In vitro liver microsomal stability, pig microsomes
[10] = In vitro liver microsomal stability, human microsomes
[11] = system: pneumonitis in a mouse model; experiment: Pneumonitis mouse model; conditions: in vivo
cerebral malaria = experiment: Cerebral malaria in mice; format: in vivo; conditions: treated on day 5 post infection and on day 6, every other day
Protocol: FIG. 19A and FIG. 19B show the targeting of glutamine metabolism to cure Cerebral malaria. Mice were treated on day 5 post infection and on day 6 (12 hours before subsequent death) with DON every other day.

[12] = system: antigen-specific CD4+ T cells; format: in vivo, mice
[13] = system: Balb/c to C57BL/6 skin allograft; experiment: Murine skin transplantation (Balb/c to C57BL/6); format: in vivo, mice
[14] = system: arthritis in a mouse model; experiment: Arthritis mouse model; conditions: in vivo
[15] = system: mouse model of Acute Respiratory Distress Syndrome (ARDS); experiment: Mouse model of acute respiratory distress syndrome (ARDS); format: in vivo, mice; conditions: treated on day 2 & 4
Description: FIG. 17A, FIG. 17B, and FIG. 17C show targeting glutamine in a mouse model of acute respiratory distress syndrome (ARDS). Mice were challenged with Ips (FIG. 17A) to induce ARDS and treated with DON on day 2 & 4.

[16] = system: mouse model of Pulmonary Fibrosis; experiment: Mouse model of pulmonary fibrosis (intratracheal bleomycin); set-up: species or system mice; conditions: in vivo
Protocol: Mice were treated with intratracheal bleomycin to induce fibrosis.

[17] = system: antigen-specific CD8+ T cells; format: in vivo, mice; conditions: DON added to 2DG+Metformin therapy
glutaminase = experiment: Glutaminase activity analysis of activated CD4+ T cells (radiolabeled assay); format: cell-based, mice; conditions: anti-CD3/CD28, 24 hrs; DON 5 μM
Protocol: Glutaminase activity analysis: Glutaminase activity measurement was adapted from previously described protocols (Thomas et al. (2013) Biochemical and Biophysical Research Communications 438(2):243-248). Briefly, T cells were lysed in ice-cold potassium phosphate buffer (45 mM, pH 8.2) containing protease inhibitors (Roche, Complete Protease Inhibitor Cocktail, 1 tablet in 50 ml) and incubated with 3H-glutamine (0.03 μM, 0.91 μCi) for 90 min at room temperature. The reactions were carried out in 50 μl reaction volumes in a 96-well microplate. At the end of the reaction period, the assay was terminated upon the addition of imidazole buffer (20 mM, pH 7). 96-well spin columns packed with strong anion ion-exchange resin (Bio-Rad, AG® 1-X2 Resin, 200-400 mesh, chloride form) were used to separate the substrate and the reaction product. Unreacted ^3H-glutamine was removed by washing with imidazole buffer. ^3H-glutamate, the reaction product, was then eluted with 0.1 N HCl and analyzed for radioactivity using Perkin Elmer's TopCount instrument in conjunction with their 96-well LumaPlates. […]

[18] = system: Balb/c to C57BL/6 heart allograft; experiment: Murine heterotopic heart transplantation (Balb/c to C57BL/6); set-up: species or system mice; conditions: mouse, in vivo
Protocol: Murine heterotopic heart transplantation: BALB/c mice served as heart donors and C57BL/6 mice serve as allograft recipients. Either abdominal or cervical heterotopic heart transplantation was performed according to previously published methods (Corry et al. (1973) Transplantation 16(4):343-350; Oberhube et al. (2014) J Vis Exp 92:e50753). Functionality of the transplanted heart was monitored daily by palpation. Clinical rejection was defined by cessation of palpable heartbeats and confirmed by autopsy. Loss of graft function within 48 hrs of transplantation was considered as a technical failure, and animals in which this occurred were omitted from the analysis.
Finally, this metabolic reprogramming therapy with at least three metabolic reprogramming agents was employed in a Balb/c to C57BL/6 heart transplantation, which is a vascularized solid organ transplantation model. Strikingly, when recipient mice were treated with metabolic reprogramming therapy with at least three metabolic reprogramming agents, the grafted hearts continued beating for more than 100 days post-transplantation without rejection (FIG. 15F).

CC(C)OC(=O)[C@H](CCC(=O)C=[N+]=[N-])NC(=O)O[C@H](C)OC(=O)C(C)(C)C (single isomer, unassigned) [Compound 14b]
plasma stability [1]: stable
plasma stability [2]: stable
plasma stability [3]: stable
CSF-to-plasma ratio of DON [4]: increased CSF-to-plasma ratios
amount of DON delivered to the CSF relative to DON [4]: substantially higher amounts of DON
plasma stability [5]: rapidly metabolized
plasma stability [6]: stable

O=CC[C@@H](O)[C@H](O)[C@H](O)CO [Compound 2-DG, 2-deoxy-D-glucose]
T cell proliferation (CD4+ and CD8+ T cells [7]): inhibited T cell proliferation and cytokine production in a dose-dependent manner
IFN-γ (cytokine) production (CD4+ and CD8+ T cells [8]): inhibited T cell proliferation and cytokine production in a dose-dependent manner
ECAR (glycolytic flux) of activated T cells (CD4+ T cells): sharp decrease
OCR (OXPHOS) of activated T cells (CD4+ T cells): insignificant increase

CC(C)C[C@H](N)C(=O)N[C@@H](CCC(=O)C=[N+]=[N-])C(=O)OC(C)C [Compound 9]
liver microsomal stability [9]: moderate-high stability
liver microsomal stability [10]: moderate-high stability

CC(C)OC(=O)[C@H](CCC(=O)C=[N+]=[N-])NC(=O)[C@@H](N)Cc1c[nH]c2ccccc12 [Compound 38a]
liver microsomal stability [9]: moderate-high stability
liver microsomal stability [10]: moderate-high stability

CC(C)OC(=O)[C@H](CCC(=O)C=[N+]=[N-])NC(=O)OC(OC(=O)C(C)(C)C)c1ccccc1 (some centres unmarked) [Compound 47]
CSF-to-plasma ratio of DON [4]: increased CSF-to-plasma ratios
amount of DON delivered to the CSF relative to DON [4]: substantially higher amounts of DON

CC(=O)N[C@@H](Cc1c[nH]c2ccccc12)C(=O)N[C@@H](CCC(=O)C=[N+]=[N-])C(=O)OC(C)C [Compound 60a]
liver microsomal stability [9]: moderate-high stability
liver microsomal stability [10]: moderate-high stability

[N-]=[N+]=CC(=O)CC[C@H](N)C(=O)O [DON, 6-Diazo-5-oxo-L-norleucine]
T cell proliferation (CD4+ and CD8+ T cells [7]): decreased
pneumonitis [11]: treated pneumonitis
death (survival) (cerebral malaria): prevent death at such a late stage of disease
CD4+ T cell effector function ([12]; DON added to 2DG+Metformin therapy): very potent inhibition
frequency of Foxp3+ CD4+ T cells (Tregs) in vivo ([12]; relative frequency): increased the relative frequency of regulatory T cells
skin allograft rejection / graft survival ([13]; fully MHC-mismatched): prevents transplant rejection and prolongs skin graft survival
skin graft median survival time (MST) ([13]; treatment from day 0 until rejection, no treatment 11 days): 22 days
arthritis [14]: treated arthritis
lung damage [15]: less lung damage
recovery (weight gain) [15]: more rapid recovery (weight gain)
lung damage [16]: markedly decreased lung damage
recruitment/generation of lung fibrocytes [16]: decrease in the recruitment/generation of lung fibrocytes
CD8+ T cell effector function [17]: very potent inhibition
IFN-γ (cytokine) production (CD4+ and CD8+ T cells [8]): decreased
glutaminase activity of activated T cells (glutaminase): significantly abrogated
heart transplant rejection [18]: able to prevent heart transplant rejection
ECAR (glycolytic flux) of activated T cells (CD4+ T cells): did not have an obvious impact
OCR (OXPHOS) of activated T cells (CD4+ T cells): did not have an obvious impact

CN(C)C(=N)N=C(N)N [metformin]
T cell proliferation (CD4+ and CD8+ T cells [7]): inhibited T cell proliferation and cytokine production in a dose-dependent manner
IFN-γ (cytokine) production (CD4+ and CD8+ T cells [8]): inhibited T cell proliferation and cytokine production in a dose-dependent manner
ECAR (glycolytic flux) of activated T cells (CD4+ T cells): increase
OCR (OXPHOS) of activated T cells (CD4+ T cells): marked suppression
